Assay results from patent publication US20060211748A1, “Sulphydryl compounds in combination with sulpha compounds” (priority 2002, published 2006).

How the values were obtained:
[1] = treatment of opportunistic infections associated with AIDS; cited from earlier work
[2] = test system: ^51Cr-labelled erythrocytes; assay: Half-life of 51Cr-labelled erythrocytes challenged in vitro with DDS N-hydroxylamine and re-introduced to autologous rats; assay type: in vivo; conditions: red cells incubated two hours with DDS N-hydroxylamine 0.05 to 0.5 millimolar with N-acetyl-L-cysteine 2 to 10 millimolar, reintroduced into autologous rat
Description: Blood is drawn from laboratory rats into heparinized tubes, washed using conventional methods, and resuspended in buffered saline solution. Red blood cells are labeled with ^51Cr as chromate using the CPD standard method known to those skilled in the art. After resuspension in isotonic saline, DDS N-hydroxylamine alone (control) or with N-acetyl-L-cysteine (treatment) are added at final concentrations of 0.05 to 0.5 millimolar and 2 millimolar to 10 millimolar, respectively, and incubated for two hours. A 0.5 milliliter sample of the washed and resuspended red blood cells is then reintroduced into the autologous animal. Half-life of the labeled erythrocytes is determined by blood sampling every two days and counting of radioactive decay in the sample using a gamma counter.

Half-life of ^51Cr-labelled erythrocytes [2]	SMILES	Discontinuation of clinical use due to toxicity [1]
	Nc1ccc(S(=O)(=O)c2ccc(N)cc2)cc1 [DDS, 4,4′-diaminodiphenylsulphone]	about 25 % of patients
able to preserve the normal half-life	CC(=O)N[C@@H](CS)C(=O)O [N-acetyl-L-cysteine]	
